Test results as given in patent US20240329050A1, “METHODS OF DETECTING PENTASACCHARIDES AND TREATMENT AND MONITORING OF LYSOSOMAL STORAGE DISEASE” (Washington University, priority 2021, published 2024).
“And” between values parts separate entries of the source, which are not always exact repeats. Identical values can stand only once.

Experiment: Validation of stability of H3N2b in urine, plasma, CSF, stock solution and standard curve matrix
Format: physicochemical, human
Description: Validation of stability-The long-term storage, freeze/thaw stabilities, and stabilities on the bench-top and in the autosampler were determined at the LQC and HQC concentration levels (n=3). Long-term storage stabilities of […]-80° C. in urine, plasma, CSF were tested. Bench-top stabilities of […] were evaluated in urine at room temperature, in plasma at room temperature, in CSF at room temperature and 4° C. Freeze/thaw stability in urine, plasma, CSF was tested by freezing the samples at -80° C. overnight, followed by thawing to room temperature the next day. This process was repeated three times. […] Stock solution stability was established by quantification of samples from dilution of two stock solutions that were stored at -20° C. and at room temperature on the bench, respectively, to the final solution (10000 ng/mL in water). The stabilities of […] in the matrix of standard curve for urine, plasma, CSF were test after storage at room temperature and at -80° C. […] standard curve was established each time.

Stable after freeze/thaw cycles (CSF): 3 freeze/thaw cycles | Stable for (CSF at 4° C.): 1 days | Stable for (CSF at −80° C.): 125 days | Stable for (CSF, room temperature): 0.083 days | Stable for (matrix of standard curve for urine, plasma, CSF, room temperature): 1 days | Stable after freeze/thaw cycles (plasma): 3 freeze/thaw cycles | Stable for (plasma at −80° C.): 158 days | Stable for (plasma, room temperature): 1 days | Stable for (processed CSF samples at 4° C.): 3 days | Stable for (processed plasma samples at 4° C.): 3 days | Stable for (processed urine samples at 4° C.): 3 days | Stable for (standard curve samples for CSF at −80° C.): 125 days | Stable for (standard curve samples for plasma at −80° C.): 158 days | Stable for (standard curve samples for urine at −80° C.): 194 days | Stable for (stock solution at −20° C.): 232 days and 231 days | Stable for (stock solution, room temperature): 1 days | Stable after freeze/thaw cycles (urine): 3 freeze/thaw cycles | Stable for (urine at −80° C.): 194 days | Stable for (urine, room temperature): 1 days
SMILES: CC(=O)N[C@H]1[C@H](O[C@@H]2[C@@H](O[C@@H]3[C@H](O)[C@H](O[C@H]4[C@H](O)[C@@H](NC(C)=O)C(O)O[C@@H]4CO)O[C@H](CO)[C@H]3O)O[C@H](CO)[C@@H](O)[C@@H]2O)O[C@H](CO)[C@@H](O[C@@H]2O[C@H](CO)[C@H](O)[C@H](O)[C@H]2O)[C@@H]1O (stereo partly drawn) [H3N2b, O-β-D-galactopyranosyl-(1→4)-O-(2-acetamido-2-deoxy-β-D-glucopyranosyl)-(1→2)-O-α-D-mannopyranosyl-(1→3)-O-β-D-mannopyranosyl-(1→4)-2-acetamido-2-deoxy-α,β-D-glucopyranose]
